Data reported in PubChem BioAssay AID248 (DTP/NCI, 2004).
Several values for one entry are separate records, joined by “and”; a condition that tells them apart may be missing. Identical values can stand only once. Toxic doses and inconclusive results are not listed. Rule as the data show it: active = T/C of 150% or more; inactive = T/C below 125%.

System: L1210 leukemia ip in BDF1 mice, survival T/C
Assay: NCI In Vivo Anticancer Drug Screen. Data for tumor model L1210 Leukemia (intraperitoneal) in B6D2F1 (BDF1) mice
Details: endpoint: mean survival time, higher = longer survival
How it was run: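 In this screen, tumor-bearing mice given compound are compared to those given vehicle, and their survival values are reported as a treated-to-control quotient.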

[1] = dose: 100.0 mg/kg/injection, schedule: Q01DX009 (ip), vehicle: Klucel (hydroxypropylcellulose) (HPC)
[2] = dose: 200.0 mg/kg/injection, schedule: Q01DX009 (ip), vehicle: Klucel (hydroxypropylcellulose) (HPC)
[3] = dose: 400.0 mg/kg/injection, schedule: Q01DX009 (ip), vehicle: Klucel (hydroxypropylcellulose) (HPC)
[4] = dose: 100.0 mg/kg/injection, schedule: Q01DX001 (ip), vehicle: saline
[5] = dose: 200.0 mg/kg/injection, schedule: Q01DX001 (ip), vehicle: saline
[6] = dose: 400.0 mg/kg/injection, schedule: Q01DX001 (ip), vehicle: saline
[7] = dose: 100.0 mg/kg/injection, schedule: Q01DX001 (ip), vehicle: carboxymethylcellulose (CMC)
[8] = dose: 200.0 mg/kg/injection, schedule: Q01DX001 (ip), vehicle: carboxymethylcellulose (CMC)
[9] = dose: 100.0 mg/kg/injection, schedule: Q01DX009 (ip), vehicle: saline
[10] = dose: 25.0 mg/kg/injection, schedule: Q01DX009 (ip), vehicle: saline
[11] = dose: 50.0 mg/kg/injection, schedule: Q01DX009 (ip), vehicle: saline
[12] = dose: 100.0 mg/kg/injection, schedule: Q04DX002 (ip), vehicle: Klucel (hydroxypropylcellulose) (HPC)
[13] = dose: 200.0 mg/kg/injection, schedule: Q04DX002 (ip), vehicle: Klucel (hydroxypropylcellulose) (HPC)
[14] = dose: 400.0 mg/kg/injection, schedule: Q04DX002 (ip), vehicle: Klucel (hydroxypropylcellulose) (HPC)
[15] = dose: 100.0 mg/kg/injection, schedule: Q04DX003 (ip), vehicle: saline with Tween-80

Measured: T/C

Cc1cc(=O)n2c3c(c(N)ccc13)OC2
inactive: [1] 108 % of control | dose: 100.0 mg/kg/injection, schedule: Q04DX003 (ip), vehicle: Klucel (hydroxypropylcellulose) (HPC) 93 % of control | [2] 97 % of control | dose: 200.0 mg/kg/injection, schedule: Q04DX003 (ip), vehicle: Klucel (hydroxypropylcellulose) (HPC) 100 % of control | [3] 93 % of control | dose: 400.0 mg/kg/injection, schedule: Q04DX003 (ip), vehicle: Klucel (hydroxypropylcellulose) (HPC) 97 % of control

CC1OC1COC1COC2C(OCC3OC3C)COC12 (stereo not drawn)
inactive: [4] 106 % of control | [5] 106 % of control | [6] 101 % of control

OC1CCC2NCCCC2C1 (stereo not drawn)
inactive: dose: 75.0 mg/kg/injection, schedule: Q01DX001 (ip), vehicle: carboxymethylcellulose (CMC) 101 % of control | dose: 150.0 mg/kg/injection, schedule: Q01DX001 (ip), vehicle: carboxymethylcellulose (CMC) 103 % of control

Cc1cc2oc(=O)cc(C)c2c(=O)o1
inactive: [7] 97 % of control | [8] 92 % of control

CCOC(=O)CNC(N)=O
inactive: [9] 96 % of control | dose: 200.0 mg/kg/injection, schedule: Q01DX009 (ip), vehicle: saline 107 % of control | dose: 400.0 mg/kg/injection, schedule: Q01DX009 (ip), vehicle: saline 96 % of control

CCN(CC)CCC(=O)c1cccc2c1OC(C)(C)C2
inactive: dose: 12.5 mg/kg/injection, schedule: Q01DX009 (ip), vehicle: saline 100 % of control and 105 % of control | dose: 12.5 mg/kg/injection, schedule: Q04DX003 (ip), vehicle: saline 103 % of control | [10] 93 % of control and 100 % of control | dose: 25.0 mg/kg/injection, schedule: Q04DX003 (ip), vehicle: saline 97 % of control | [11] 93 % of control and 102 % of control | dose: 50.0 mg/kg/injection, schedule: Q04DX003 (ip), vehicle: saline 103 % of control

O=[N+]1c2ccccc2N([O-])C2CCCCC21 (stereo not drawn)
inactive: [12] 93 % of control | [13] 93 % of control | [14] 104 % of control

CCOCC[P+](c1ccccc1)(c1ccccc1)c1ccccc1
inactive: dose: 5.0 mg/kg/injection, schedule: Q01DX001 (ip), vehicle: saline 92 % of control | dose: 10.0 mg/kg/injection, schedule: Q01DX001 (ip), vehicle: saline 92 % of control | dose: 10.0 mg/kg/injection, schedule: Q01DX015 (ip), vehicle: saline 90 % of control | dose: 20.0 mg/kg/injection, schedule: Q01DX001 (ip), vehicle: saline 106 % of control | dose: 40.0 mg/kg/injection, schedule: Q01DX001 (ip), vehicle: saline 105 % of control

CCC(c1ccc(OC)cc1)C(CC)c1ccc(O)c(CN2CCN(C)CC2)c1 (stereo not drawn)
inactive: [15] 94 % of control | dose: 200.0 mg/kg/injection, schedule: Q04DX003 (ip), vehicle: saline with Tween-80 94 % of control | dose: 400.0 mg/kg/injection, schedule: Q04DX003 (ip), vehicle: saline with Tween-80 94 % of control

O=C(Nc1ccc(S(=O)(=O)NC2CCCCC2)cc1)OC1CCCCCC1
inactive: [4] 94 % of control | [5] 94 % of control | [6] 88 % of control

CN(Cc1ccccc1Cl)C(=S)NC1CCCCC1
inactive: [1] 92 % of control | [2] 93 % of control | [3] 93 % of control

O=c1ccn(Cc2cccc(Oc3ccccc3)c2)c(=O)[nH]1
inactive: dose: 100.0 mg/kg/injection, schedule: Q01DX001 (ip), vehicle: saline with Tween-80 92 % of control | dose: 200.0 mg/kg/injection, schedule: Q01DX001 (ip), vehicle: saline with Tween-80 93 % of control | dose: 400.0 mg/kg/injection, schedule: Q01DX001 (ip), vehicle: saline with Tween-80 92 % of control

O=C(O)c1ccc(Br)cc1F
inactive: [7] 89 % of control | dose: 100.0 mg/kg/injection, schedule: Q01DX009 (ip), vehicle: carboxymethylcellulose (CMC) 109 % of control and 92 % of control | [12] 97 % of control | dose: 100.0 mg/kg/injection, schedule: Q04DX002 (ip), vehicle: carboxymethylcellulose (CMC) 104 % of control and 107 % of control | dose: 100.0 mg/kg/injection, schedule: Q04DX003 (ip), vehicle: carboxymethylcellulose (CMC) 97 % of control | [8] 99 % of control | dose: 200.0 mg/kg/injection, schedule: Q01DX009 (ip), vehicle: carboxymethylcellulose (CMC) 116 % of control and 89 % of control | [13] 97 % of control | dose: 200.0 mg/kg/injection, schedule: Q04DX002 (ip), vehicle: carboxymethylcellulose (CMC) 102 % of control and 91 % of control | dose: 200.0 mg/kg/injection, schedule: Q04DX003 (ip), vehicle: carboxymethylcellulose (CMC) 99 % of control | dose: 400.0 mg/kg/injection, schedule: Q01DX001 (ip), vehicle: carboxymethylcellulose (CMC) 89 % of control | dose: 400.0 mg/kg/injection, schedule: Q01DX009 (ip), vehicle: carboxymethylcellulose (CMC) 95 % of control and 92 % of control | [14] 97 % of control | dose: 400.0 mg/kg/injection, schedule: Q04DX002 (ip), vehicle: carboxymethylcellulose (CMC) 99 % of control and 100 % of control | dose: 400.0 mg/kg/injection, schedule: Q04DX003 (ip), vehicle: carboxymethylcellulose (CMC) 105 % of control

NC(N)=NC(N)=Nc1ccc(Cl)c(Cl)c1
inactive: dose: 25.0 mg/kg/injection, schedule: Q01DX009 (ip), vehicle: Klucel (hydroxypropylcellulose) (HPC) 100 % of control | [10] 104 % of control | dose: 50.0 mg/kg/injection, schedule: Q01DX009 (ip), vehicle: Klucel (hydroxypropylcellulose) (HPC) 104 % of control | [11] 98 % of control | dose: 75.0 mg/kg/injection, schedule: Q01DX009 (ip), vehicle: Klucel (hydroxypropylcellulose) (HPC) 102 % of control | [9] 91 % of control | [15] 100 % of control

CC(C)(C)NC(=O)NCC1CCCC1NC(=O)NC(C)(C)C (stereo not drawn)
inactive: [12] 92 % of control | [13] 99 % of control | [14] 92 % of control

CCC(=O)O[C@H]1CC[C@H]2[C@@H]3CCC4=CC(=O)CC[C@]4(C)[C@H]3CC[C@]12C
inactive: dose: 125.0 mg/kg/injection, schedule: Q01DX Z (sc), vehicle: steriod suspending solution 101 % of control and 106 % of control | dose: 250.0 mg/kg/injection, schedule: Q01DX Z (sc), vehicle: steriod suspending solution 97 % of control and 112 % of control | dose: 500.0 mg/kg/injection, schedule: Q01DX Z (sc), vehicle: steriod suspending solution 101 % of control and 103 % of control | dose: 500.0 mg/kg/injection, schedule: Q01DX Z (sc), vehicle: water 95 % of control | dose: 1000.0 mg/kg/injection, schedule: Q01DX Z (sc), vehicle: steriod suspending solution 100 % of control | dose: 1000.0 mg/kg/injection, schedule: Q01DX Z (sc), vehicle: water 97 % of control
